Several values for one entry are separate records, joined by “and”; a condition that tells them apart may be missing. Identical values can stand only once. Entries after “also recorded” stand apart in the source; their conditions may differ.
How the values were obtained:
Test in all cases: Phenotypic susceptibility assay (site directed mutant RTV)
Assay type in all cases: cell-based, HIV-1
G190A-RTV = details: for change in susceptibility: alanine at position 190, no other NNRTI mutations
Text: (§1) The resistance test vectors containing a functional luciferase gene cassette were constructed and host cells were transfected with the resistance test vector DNA. The resistant test vectors contained patient-derived reverse transcriptase and protease sequences that were either susceptible or resistant to the antiretroviral agents, such as nucleoside reverse transcriptase inhibitors, non-nucleoside reverse transcriptase inhibitors and protease inhibitors. The resistance test vector viral particles produced by transfecting the resistance test vector DNA into host cells, either in the presence or absence of protease inhibitors, were used to infect target host cells grown either in the absence of NRTI or NNRTI or in the presence of increasing concentrations of the drug. The amount of luciferase activity produced in infected target host cells in the presence of drug was compared to the amount of luciferase produced in infected target host cells in the absence of drug. Drug resistance was measured as the amount of drug required to inhibit by 50% the luciferase activity detected in the absence of drug (inhibitory concentration 50%, IC50). The IC50 values were determined by plotting percent drug inhibition vs. log10 drug concentration.
Host cells were seeded in 10-cm-diameter dishes and were transfected several days after plating with resistance test vector plasmid DNA and the envelope expression vector. Transfections were performed using a calcium-phosphate precipitation procedure. The cell culture media containing the DNA precipitate was replaced with fresh medium, from one to 24 hours, after transfection. Cell culture media containing resistance test vector viral particles was harvested one to four days after transfection and was passed through a […] filter before being stored at […]. HIV capsid protein (p24) levels in the harvested cell culture media were determined by an EIA method as described by the manufacturer (SIAC; Frederick, Md.). Before infection, target cells (293 and 293/T) were plated in cell culture media. Control infections were performed using cell culture media from mock transfections (no DNA) or transfections containing the resistance test vector plasmid DNA without the envelope expression plasmid. One to three or more days after infection the media was removed and cell lysis buffer (Promega) was added to each well. Cell lysates were assayed for luciferase activity (FIG. 3). The inhibitory effect of the drug was determined using the following equation: % luciferase inhibition=1−(RLUluc [drug]÷RLUluc)×100 where RLUluc [drug] is the relative light unit of luciferase activity in infected cells in the presence of drug and RLUluc is the Relative Light Unit of luciferase activity in infected cells in the absence of drug. […]

Y181I-RTV = details: for loss of susceptibility (fold, IC50) vs wild type control RTV: Y181I alone; for change in susceptibility: mutation at codon 181 (isoleucine)
Text: as §1
(§2) Host cells were seeded in 10-cm-diameter dishes and were transfected several days after plating with resistance test vector plasmid DNA and the envelope expression vector. Transfections were performed using a calcium-phosphate precipitation procedure. The cell culture media containing the DNA precipitate was replaced with fresh medium, from one to 24 hours, after transfection. Cell culture media containing resistance test vector viral particles was harvested one to four days after transfection and was passed through a […] filter before being stored at […]. HIV capsid protein (p24) levels in the harvested cell culture media were determined by an EIA method as described by the manufacturer (SIAC; Frederick, Md.). Before infection, target cells (293 and 293/T) were plated in cell culture media. Control infections were performed using cell culture media from mock transfections (no DNA) or transfections containing the resistance test vector plasmid DNA without the envelope expression plasmid. One to three or more days after infection the media was removed and cell lysis buffer (Promega) was added to each well. Cell lysates were assayed for luciferase activity (FIG. 3). The inhibitory effect of the drug was determined using the following equation: % luciferase inhibition=1−(RLUluc [drug]÷RLUluc)×100 where RLUluc [drug] is the relative light unit of luciferase activity in infected cells in the presence of drug and RLUluc is the Relative Light Unit of luciferase activity in infected cells in the absence of drug. IC50 values were obtained from the sigmoidal curves that were generated from the data by plotting the percent inhibition of luciferase activity vs. the log10 drug concentration. The drug inhibition curves are shown in (FIG. 3).
The Y181I mutationwas introduced into the resistance test vector using the mega-primer method for site-directed mutagenesis (Sakar and Sommar, Ibid). A resistance test vector containing the Y181I mutation (Y181I-RTV) was then tested using the phenotypic assay described earlier and the results were compared to those determined using a genetically defined resistance test vector that was wild type at position 181. We determined the pattern of phenotypic susceptibility to the NNRTIs, delavirdine, nevirapine and efavirenz, in the Y181I-RTV.

Y188C-RTV = details: Y188C alone
Text: as §1, with “Drug resistance was measured as the amount of drug required to inhibit by 50% the luciferase activity detected in the absence of drug (inhibitory concentration 50%, IC50).” left out
(§3) Host cells were seeded in 10-cm-diameter dishes and were transfected several days after plating with resistance test vector plasmid DNA and the envelope expression vector. […] HIV capsid protein (p24) levels in the harvested cell culture media were determined by an EIA method as described by the manufacturer (SIAC; Frederick, Md.). […] The inhibitory effect of the drug was determined using the following equation: % luciferase inhibition=1−(RLUluc [drug]÷RLUluc)×100 where RLUluc [drug] is the relative light unit of luciferase activity in infected cells in the presence of drug and RLUluc is the Relative Light Unit of luciferase activity in infected cells in the absence of drug. […]
The Y188C mutation was introduced into the resistance test vector using the mega-primer method for site-directed mutagenesis (Sakar and Sommar, Ibid.). […] We determined the pattern of phenotypic susceptibility to the NNRTIs., delavirdine, nevirapine and efavirenz, in the Y188C-RTV.

Y181C-RTV = details: for change in susceptibility: Y181C, FIG. 5
Text: as §1, with “Drug resistance was measured as the amount of drug required to inhibit by 50% the luciferase activity detected in the absence of drug (inhibitory concentration 50%, IC50).” left out
as §3
The Y181C and A98G mutations were introduced alone and in combination into resistance test vectors using the mega-primer method for site-directed mutagenesis (Sakar and Sommar, Ibid.). […] We determined the pattern of phenotypic susceptibility to the NNRTIs, delavirdine, neviraphine and efavirenz, in the three vectors. […]

V106A-F227-RTV = details: for loss of susceptibility (fold, IC50) vs wild type control RTV: V106A and F227L; for change in susceptibility: mutations at 106 and 227
Text: as §1, §2
(§4) The mutations V106A, V189L, V181C an F227L were introduced alone and in combination into resistance test vectors using the mega-primer method for site-directed mutagenesis (Sakar and Sommar, Ibid.). Resistance test vectors containing the V106A mutation (V106A-RTV), the V189L mutation (V189L-RTV), the V181C mutation (V181C-RTV) and E227L mutation (F2271-RTV) and two mutations (V106A-Y181C-RTV) and (V106A-V189L-RTV) and (V106A-F227-RTV) and (V181C-F227-RTV) and three mutations, (V106A-Y181C-F227L-RTV) were then tested using the phenotypic assay described earlier and the results were compared to those determined using a genetically defined resistance test vector that was wild type at positions 106, 189, 181 and 227. We determined the pattern of phenotypic susceptibility to the NNRTIs, delavirdine, nevirapine and efavirenz, in all nine vectors.

V106A-RTV = details: V106A alone
Text: as §1, §2, §4

V106A-V189L-RTV = details: for change in susceptibility (fold, IC50) vs wild type control RTV: V106A and V189L; for change in susceptibility: mutations at 106 and 189
Text: as §1, §2, §4

V106A-Y181C-F227L-RTV = details: for loss of susceptibility (fold, IC50) vs wild type control RTV: V106A, Y181C and F227L; for change in susceptibility: mutations at 106 and 181 and 227
Text: as §1, §2, §4

V106A-Y181C-RTV = details: for loss of susceptibility (fold, IC50) vs wild type control RTV: V106A and Y181C; for change in susceptibility: mutations at 106 and 181
Text: as §1, §2, §4

Compound: Cc1ccnc2c1NC(=O)c1cccnc1N2C1CC1 [nevirapine]
- change in susceptibility (G190A-RTV): decrease
- loss of susceptibility (fold, IC50) vs wild type control RTV (Y181I-RTV): 740 fold
- change in susceptibility (Y181I-RTV): significant decrease
- loss of susceptibility (fold, IC50) vs wild type control RTV (Y188C-RTV): 30 fold
- change in susceptibility (Y181C-RTV): resistance
- loss of susceptibility (fold, IC50) vs wild type control RTV (V106A-F227-RTV): greater than 800 fold
- change in susceptibility (V106A-F227-RTV): substantial decrease
- change in susceptibility (fold, IC50) vs wild type control RTV (V106A-RTV): 60 fold
- change in susceptibility (fold, IC50) vs wild type control RTV (V106A-V189L-RTV): 50 fold
- change in susceptibility (V106A-V189L-RTV): moderate decrease
- loss of susceptibility (fold, IC50) vs wild type control RTV (V106A-Y181C-F227L-RTV): greater than 800 fold
- change in susceptibility (V106A-Y181C-F227L-RTV): substantial decrease
- loss of susceptibility (fold, IC50) vs wild type control RTV (V106A-Y181C-RTV): greater than 800 fold
- change in susceptibility (V106A-Y181C-RTV): substantial decrease

Compound: O=C1Nc2ccc(Cl)cc2[C@@](C#CC2CC2)(C(F)(F)F)O1 [efavirenz]
- change in susceptibility (fold, IC50) vs wild type control RTV (G190A-RTV; G190A alone): 8 fold
- loss of susceptibility (fold, IC50) vs wild type control RTV (Y181I-RTV): 1.4 fold
- change in susceptibility (Y181I-RTV): no change
- loss of susceptibility (fold, IC50) vs wild type control RTV (Y188C-RTV): 20 fold
- loss of susceptibility (fold, IC50) vs wild type control RTV (Y181C-RTV; Y181C alone): 3 fold and 4 fold
- loss of susceptibility (fold, IC50) vs wild type control RTV (V106A-F227-RTV): 8 fold
- change in susceptibility (V106A-F227-RTV): slight decrease
- change in susceptibility (fold, IC50) vs wild type control RTV (V106A-RTV): 1.7 fold
- change in susceptibility (fold, IC50) vs wild type control RTV (V106A-V189L-RTV): 1 fold
- change in susceptibility (V106A-V189L-RTV): no change
- loss of susceptibility (fold, IC50) vs wild type control RTV (V106A-Y181C-F227L-RTV): 12 fold
- change in susceptibility (V106A-Y181C-F227L-RTV): slight decrease
- loss of susceptibility (fold, IC50) vs wild type control RTV (V106A-Y181C-RTV): 4 fold
- change in susceptibility (V106A-Y181C-RTV): slight decrease

Compound: CC(C)Nc1cccnc1N1CCN(C(=O)c2cc3cc(NS(C)(=O)=O)ccc3[nH]2)CC1 [delavirdine]
- change in susceptibility (G190A-RTV): increase
- change in susceptibility (G190A-RTV; listed as delviridine): increased susceptibility
- loss of susceptibility (fold, IC50) vs wild type control RTV (Y181I-RTV): 20 fold
- change in susceptibility (Y181I-RTV): moderate decrease
- loss of susceptibility (fold, IC50) vs wild type control RTV (Y188C-RTV): 3 fold
- change in susceptibility (Y181C-RTV): resistance
- loss of susceptibility (fold, IC50) vs wild type control RTV (V106A-F227-RTV): 3 fold
- change in susceptibility (V106A-F227-RTV): slight decrease
- change in susceptibility (fold, IC50) vs wild type control RTV (V106A-RTV): 5 fold
- change in susceptibility (fold, IC50) vs wild type control RTV (V106A-V189L-RTV): 3 fold
- change in susceptibility (V106A-V189L-RTV): slight decrease; also recorded: alight decrease
- loss of susceptibility (fold, IC50) vs wild type control RTV (V106A-Y181C-F227L-RTV): 50 fold
- change in susceptibility (V106A-Y181C-F227L-RTV): moderate decrease
- loss of susceptibility (fold, IC50) vs wild type control RTV (V106A-Y181C-RTV): 100 fold
- change in susceptibility (V106A-Y181C-RTV): significant decrease
